Data taken from US20230277573A1, “OLIGOSACCHARIDE COMPOSITIONS AND METHODS OF USE” (DSM Nutritional Products, LLC, priority 2020, published 2023).

System: western diet (WD)-induced obese low density lipoprotein receptor knock-out (ldlr−/−) mouse model
Assay: Western diet (WD)-induced obese ldlr−/− mouse model: blood, liver, aorta and body weight readouts
Type: in vivo
Settings: WD-fed ldlr−/− mice, 16 wk, fenofibrate 100 mg/kg/day
Method: The therapeutic and microbiome effects of the selected oligosaccharide composition were tested in a validated western diet (WD)-induced obese low density lipoprotein receptor knock-out (ldlr^−/−) mouse model, thought to recapitulate a number of metabolic pathologies found in humans, including obesity, hyperglycemia, glucose intolerance, hyperinsulinemia, insulin resistance, severe hypercholesterolemia, hypertriglyceridemia, atherosclerosis, hepatic steatosis and hepatic inflammation. […]
9-11 weeks old male C57BL/6J ldlr^−/− mice were split into one of four treatment groups (12 animals per group, 4 animals per cage)—(1) no treatment (NT), (2) the selected oligosaccharide (as produced by the process described in Example 2), (3) a glucose/galactose-based oligosaccharide composition and (4) fenofibrate—for 16 weeks. […] The body weight for each animal was measured prior to the treatment period and weekly over the treatment period. 4-day food intake for each cage was measured weekly over the treatment period and averaged as food intake per mouse per day. […] For each animal, separate liver sections (˜100 mg each) were collected and frozen for the quantification of hepatic TG and hepatic TC. […] The aortic arch was surface stained with oil red O for the quantification of atherosclerotic plaque surface area.

For `CC(C)OC(=O)C(C)(C)Oc1ccc(C(=O)c2ccc(Cl)cc2)cc1` [fenofibrate, Fenofibrate], the “effect on food intake” value (OS 7.5% w/w in diet) was “no effect” and the “body weight gain lowered by, compared to NT” value was 44%.
